System: HL-60
Assay: Induction of cell cycle arrest in human HL-60 cells assessed as proportion of cells at subG1 phase at 16 nM incubated for 24 hrs by PI staining based flow cytometry (reference value: 6.94%)
Type: functional

COc1ccc(NC(=O)Nc2nnc(Sc3ncnc4oc(-c5ccccc5)cc34)s2)cc1
Activity: 7.48%
